Laboratory results taken from patent US20230364198A1, “C-Peptide as a Therapy for Patients with Diabetes” (University of Cincinnati, priority 2022, published 2023).
Values joined by “and” are separate entries in the source; they are usually repeats but may differ in a detail not shown here. Identical values can stand only once. “Also recorded” adds a separate entry of the source. Like-named read-outs stand apart in the source and are kept apart here. No end group written: not given here.

Assays:
[1] = humans; cited from earlier work
[2] = in vivo; cited from earlier work
[3] = dogs; cited from earlier work
[4] = test system: adult mongrel dogs; assay: Hyperinsulinemic euglycemic (Pd1) / hypoglycemic (Pd2) clamp with IV C-peptide or saline coinfusion in dogs; format: in vivo, dog; conditions: for glucagon secretion during euglycemic/hyperinsulinemic conditions (words): Pd1, IV C-peptide with insulin vs IV saline with insulin
Experimental: Studies were carried out on 18-hour fasted adult mongrel dogs (21 ± 4 kg; mean ± SD; 5 male, 4 female), aged 12.1 ± 0.6 months and acquired from a US Department of Agriculture-approved vendor. The animals were housed in a facility with a 12-hour light/12-hour dark cycle (lights on at 06:00 hours) and fed once daily a standard chow and meat diet (34% protein, 14.5% fat, 46% carbohydrate, and 5.5% fiber based on dry weight) that was weight maintaining.
Two weeks prior to being studied, each dog underwent surgery under general anesthesia to insert sampling catheters in a femoral artery, the hepatic portal vein, and the left common hepatic vein and to place blood flow probes (Transonic Systems) around the hepatic portal vein and hepatic artery. Two experiments were conducted on each animal, with the first being approximately 15 days after surgery and the second approximately 15 days later. Two days before each experiment, blood was drawn to measure leukocyte and hematocrit counts for each animal. […] On the morning of each experiment, the sampling catheters and flow probes were removed from their subcutaneous pockets under local anesthesia (2% lidocaine, Hospira), and the animal was placed in a Pavlov harness. Intravenous catheters were then inserted into a cephalic and saphenous vein to allow peripheral infusions as necessary. The animal was then allowed to rest for 100 minutes, after which basal samples were collected from the artery and portal and hepatic veins between -20 and 0 minutes.
After the 0-minute sample was collected, experimental period 1 (Pd1) began with the infusion of insulin at 1 mU/kg/min into a leg vein (FIG. 1). At the same time, a leg vein infusion of either canine CPEP (10 pmol/kg/min; AnaSpec) or SAL was also started, and dextrose was infused as needed to maintain euglycemia throughout Pd1 (0-120 minutes). Studies were randomized such that 4 of the 9 dogs received the C-peptide on the first study and the other 5 received saline first. At minute 120, the dextrose infusion was reduced, and the plasma glucose level was allowed to fall to approximately 50 mg/dL, where it was clamped (Pd2; 120-240 minutes; FIG. 1). At the end of the first experiment, all infusions were halted with the exception of glucose, which was infused as needed to restore euglycemia. Once that infusion was no longer required, the catheters and flow probes were placed back into subcutaneous pockets under general anesthesia. After the second experiment, animals were euthanized with pentobarbital, the abdomen was opened, and the positions of the catheter tips were verified.
The processing of blood samples has been described previously. Plasma glucose was analyzed using the glucose oxidase method (Analox Instruments). Insulin, glucagon, and C-peptide were measured using commercially available radioimmunoassay (RIA) kits from MilliporeSigma, and cortisol was measured using an RIA protocol developed by the Vanderbilt University Medical Center Hormone Assay & Analytical Services Core using an in-house antibody (gift from W. Nicholson) and 125I-cortisol (MP Biomedicals). Catecholamines were measured using high-performance liquid chromatography, while NEFA (FUJIFILM Medical Systems) and lactate and glycerol concentrations were measured using fluorometric assays.
Hepatic blood flow was measured using ultrasonic flow probes (Transonic Systems). Net hepatic glucose balance (NHGB), hepatic sinusoidal insulin and glucagon levels, and non-hepatic glucose uptake were calculated as described previously, while plasma glucose levels were converted to whole blood values for the calculation of NHGB. Glucagon was measured every 30 minutes during Pd1 and Pd2, and those data are expressed as absolute values and as Δ AUC. […]

EVEDLQVRDVELAGAPGEGGLQPLALEGALQ [C-peptide]
clearance rate of C-peptide [1]: ~ 4.4 mL/kg/min | C-peptide extraction by the liver as share of its clearance [2]: approximately 5% | clearance rate of C-peptide [3]: ~ 11.6 mL/kg/min | glucagon secretion during euglycemic/hyperinsulinemic conditions (words) [4]: preserved glucagon secretion; also recorded: prevented the expected decline in glucagon secretion; also recorded: preserves basal glucagon secretion | glucagon secretion during euglycemic/hyperinsulinemic conditions (words) ([4]; listed as CPEP): glucagon secretion decreased less | glucagon secretion during hypoglycemic/hyperinsulinemic conditions ([4]; Pd2, IV C-peptide with insulin vs IV saline with insulin): doubled glucagon secretion | reduction in exogenous glucose required to sustain the plasma glucose at 50 mg/dL vs SAL ([4]; final 90 minutes of Pd2): 47% | exogenous glucose infusion rate (GIR) AUC ([4]; final 90 minutes of Pd2, glucose clamped at 50 mg/dL, mean ± SEM): 37 ± 16 mg/kg × 90 minutes | impact on net hepatic uptake of NEFA and glycerol ([4]; hyperinsulinemia of Pd1): no additional impact | impact on lipolysis (NEFA and glycerol levels) ([4]; hypoglycemia, Pd2): no impact on lipolysis | increase in glucagon secretion in the CPEP group compared with SAL ([4]; insulin-induced hypoglycemia (Pd2), IV C-peptide 10 pmol/kg/min with insulin 1 mU/kg/min): 2 fold | epinephrine, norepinephrine and cortisol levels, SAL vs CPEP ([4]; insulin-induced hypoglycemia, Pd2): no significant difference between treatments | increase in net hepatic glucose output (net HGP) vs SAL ([4]; insulin-induced hypoglycemia, final 90 minutes of Pd2): 75% | increase in net hepatic glucose output (net HGP) vs SAL ([4]; insulin-induced hypoglycemia, final 90 minutes of Pd2, listed as CPEP): 75% and 73%
